Data as given in publication PMC7531601, “Exploiting Lactoferricin (17–30) as a Potential Antimicrobial and Antibiofilm Candidate Against Multi-Drug-Resistant Enteroaggregative Escherichia coli” (Frontiers in Microbiology, 2020).
≈ marks a conversion by molar mass, not a printed value.

What was measured:
MDR-EAEC isolates [1] = assay: In vitro antibiotic susceptibility testing of MDR-EAEC isolates; type: cell-based, enteroaggregative Escherichia coli; set-up: key to Antibiotic Susceptibility testing / MIC Values (mg/L), given as class symbol: S – Sensitive; R- Resistant; conditions: for MIC: Escherichia coli
Excerpt: E. coli ATCC 25922 was used as the quality control strain for antibiotic susceptibility testing.

G. mellonella larvae = assay: LDH cytotoxicity assay of larval haemolymph; type: in vivo, Galleria mellonella; conditions: infected larvae treated 3 h pi
Protocol: (§1) Galleria mellonella larvae were grouped 40 per group for in vivo antimicrobial testing of Lfcin (17–30) as follows: group I (MDR-EAEC infection control), groups II and III (infection + treatment groups), group IV (PBS control), and group V [Lfcin(17–30) control]. Optimized LD50 dose of MDR-EAEC (a cocktail of three strains) was administered to larvae of groups I to III, while MIC dose of Lfcin (17–30) and Meropenem was administered 3 h post-infection (pi) in groups II and III, respectively. Larval group IV was injected with sterile PBS, whereas MIC dose of Lfcin (17–30) was administered in group V.
The larvae were then observed for their survival rate, melanization (Supplementary Information S7), MDR-EAEC counts (Supplementary Information S8), hemocyte density (Supplementary Information S9) ([Wand et al., 2013]), lactate dehydrogenase (LDH) cytotoxicity assay (Supplementary Information S10) ([Gibreel and Upton, 2013]), and histopathology (Supplementary Information S11) ([Perdoni et al., 2014]), at an interval of 6 h till 24 h, followed by 24-h interval up to 120 h pi.
G. mellonella (n=3 larvae per group) were analysed for the production of LDH, as a marker of cell damage, at an interval of 6 h pi for 24 h, followed by 24 h interval till 96 h pi using QuantiChrom LDH cytotoxicity assay kit, according to the manufacturer’s instructions. The positive and negative controls used in this study were […]. The absorbance was read using ELISA plate reader at 500 nm; the haemolymph from untreated larvae served as background control and the cytotoxicity was calculated as, Cytotoxicity (%) = (ODSample - ODControl)/ (ODTotal Lysis - ODControl) x 100, wherein, sample is the control absorbance of treated cell; control is the experimental absorbance of the untreated cell control and total lysis is the absorbance of Triton X-100 treated cells.

[2] = test system: G. mellonella larvae infected with MDR-EAEC (a cocktail of three strains); assay: G. mellonella larval survival; type: in vivo, Galleria mellonella; conditions: larvae infected with LD50 dose (10^6 CFU) of MDR-EAEC, MIC dose 3 h pi, up to 120 h pi, 40 larvae per group
Protocol: The final instar of G. mellonella larvae was utilized for performing the in vivo assays ([Morgan et al., 2014]). The larvae (ca. 200–250 mg) inoculated with aliquots of MDR-EAEC suspensions (10 μl) by injection using Hamilton syringe (26 gauge) via the last right pro-leg were incubated at 37°C and the observations were noted. The larvae kept in a sterile environment were provided with ad lib food during the experiment.
The determined LD50 dose for each MDR-EAEC strain in the larvae was validated and employed further in the in vivo experiments to evaluate the antibacterial efficacy of Lfcin (17–30).
as §1, with “V. […]” for “V.”

MDR-EAEC isolates [3] = assay: In vitro time-kill kinetics; type: cell-based, enteroaggregative Escherichia coli; conditions: 10 μg/ml, ca. 1 × 10^7 CFU/ml, CA-MH broth, 37°C
Protocol: The in vitro dose- and time-kill kinetics was assessed by co-incubating the log-phase cultures of each of MDR-EAEC isolates (ca. 1 × 10^7 CFU/ml) in cation-adjusted Mueller Hinton (CA-MH) broth with MIC (1 × and 2 × ) of Lfcin (17–30) (Supplementary Information S6). The desired inoculum for each MDR-EAEC strain and Lfcin (17–30) suspended in CA-MH broth was as follows: Group I, 10^7 CFU of MDR-EAEC (50 μl) with 1 × MIC of Lfcin (17–30) (50 μl); Group II, 10^7 CFU of MDR-EAEC (50 μl) with 2 × MIC of Lfcin (17–30) (50 μl); Group III, 10^7 CFU of MDR-EAEC (50 μl) with 10 μg/ml of Meropenem (50 μl); and Group IV, 10^7 CFU of MDR-EAEC (50 μl) in CA-MH broth (50 μl). The MDR-EAEC counts were enumerated ([Miles et al., 1938]) at 0, 30, 60, 90, 120, 150, and 180 min, and 24, 48, and 72 h post co-incubation.
FIGURE 2 Dose- and time-dependent time-kill assay of MDR-EAEC isolates co-cultured with Lfcin (17–30). MDR-EAEC isolates (n = 3) were co-cultured with 1 × MIC of Lfcin (17–30) (A) and 2 × MIC of Lfcin (17–30) (B) in CA-MH broth at 37°C under static conditions with respective controls of MDR-EAEC isolates (untreated and meropenem-treated). Data expressed as the mean ± standard deviation (log10CFU/ml) of three independent experiments (***P < 0.001). […]

Molecule | MIC (MDR-EAEC isolates [1]; KY941937.1 (MDR 2)) [µg/mL] | MIC (MDR-EAEC isolates [1]; KY941938.1 (MDR 3)) [µg/mL] | Antibiotic Susceptibility testing (MDR-EAEC isolates [1]; KY941936.1 (MDR 1)) | Antibiotic Susceptibility testing (MDR-EAEC isolates [1]; KY941937.1 (MDR 2)) | Antibiotic Susceptibility testing (MDR-EAEC isolates [1]; KY941938.1 (MDR 3)) | MIC Values (mg/L), given as class symbol (MDR-EAEC isolates [1]; KY941936.1 (MDR 1)) | MIC Values (mg/L), given as class symbol (MDR-EAEC isolates [1]; KY941937.1 (MDR 2)) | MIC Values (mg/L), given as class symbol (MDR-EAEC isolates [1]; KY941938.1 (MDR 3)) | also measured
CC1(C)S[C@@H]2[C@H](NC(=O)[C@H](N)c3ccccc3)C(=O)N2[C@H]1C(=O)O [AMP, Ampicillin] | > 240 | > 240 | R | R | R |  |  |  | MIC (MDR-EAEC isolates [1]; KY941936.1 (MDR 1)): > 240 µg/mL
O=C(O)c1cn(C2CC2)c2cc(N3CCNCC3)c(F)cc2c1=O [CIP, Ciprofloxacin] | 120 (≈ 362 µM) | 60 (≈ 181 µM) | S | R | R |  |  |  | 
O=C(N[C@H](CO)[C@H](O)c1ccc([N+](=O)[O-])cc1)C(Cl)Cl [CL, Chloramphenicol] |  |  | S | S | S | S | S | S | 
CO/N=C(\C(=O)N[C@@H]1C(=O)N2C(C(=O)O)=C(CSc3nc(=O)c(=O)[nH]n3C)CS[C@H]12)c1csc(N)n1 [CTR, Ceftriaxone] | > 240 | > 240 | S | R | R | S |  |  | 
CNC(C)C1CCC(N)C(OC2C(N)CC(N)C(OC3OCC(C)(O)C(NC)C3O)C2O)O1 (stereo not drawn) [GEN, Gentamicin] |  |  | S | S | S | S | S | S | 
C[C@@H](O)[C@H]1C(=O)N2C(C(=O)O)=C(SCCN=CN)C[C@H]12 [IMI, Imipenem] |  |  | S | S | S | S | S | S | 
Cc1cc(NS(=O)(=O)c2ccc(N)cc2)no1 [SXT, Sulfamethoxazole] |  |  | R | S | R |  |  |  | 
CN(C)[C@@H]1C(O)=C(C(N)=O)C(=O)[C@@]2(O)C(O)=C3C(=O)c4c(O)cccc4[C@@](C)(O)[C@H]3C[C@@H]12 [TE, Tetracycline] | 2 (≈ 4.5 µM) | 30 (≈ 67.5 µM) | R | R | R |  |  |  | MIC (MDR-EAEC isolates [1]; KY941936.1 (MDR 1)): 60 µg/mL (≈ 135 µM)
C[C@@H](O)[C@H]1C(=O)N2C(C(=O)O)=C(S[C@@H]3CN[C@H](C(=O)N(C)C)C3)[C@H](C)[C@H]12 [meropenem, reference compound] |  |  |  |  |  |  |  |  | LDH cytotoxicity (G. mellonella larvae): Almost similar observations; survival rate [2]: 85%; reduction in bacterial counts at 30 min post-coincubation (MDR-EAEC isolates [3]): highly significant (P < 0.001) reduction; time post-coincubation after which complete inhibition (MDR-EAEC isolates [3]): 60 min
Co-trimoxazole [COT] |  |  | R | R | R |  |  |  | MIC Values (MDR-EAEC isolates [1]; KY941936.1 (MDR 1)): >240 µg/mL; MIC Values (MDR-EAEC isolates [1]; KY941937.1 (MDR 2)): >240 µg/mL; MIC Values (MDR-EAEC isolates [1]; KY941938.1 (MDR 3)): >240 µg/mL
Colistin sulphate |  |  | S | S | S | S | S | S | 
